We go through four compounds from US11185539B2 (priority 2017, dated 2021).

Each structure is given as a SMILES string.

Test [1] concerns cardiomyocyte cell line HL-1. The test can be described thus: Proliferation of cardiomyocyte cell line HL-1, BrdU-ELISA. It is filed as cell-based. The conditions noted are these: same concentrations as on HCFs, 24 h, DMSO control. The method, then: HCFs and HL-1 cells were treated with Bufalin, Gitoxigenin, Lycorine and Anisomycin for 24 h with the same concentrations as indicated in Example 1 and proliferation of HCFs and cardiomyocyte cell line HL-1 cells was measured by BrdU-ELISA, DMSO refers as a control (see FIG. 2B, 3B, 4B, 5B). The cell proliferation ELISA is a colorimetric alternative to quantitate cell proliferation based on the measurement of BrdU incorporation during DNA synthesis in proliferating cells. After its incorporation into DNA, BrdU is detected by immunoassay by using antibodies being highly specific for BrdU. First, HCFs and/or HL-1 cells are cultured together with various dilutions of test substances (e.g. mitogens, growth factors, cytokines and test compounds such as Bufalin, Gitoxigenin, Lycorine and Anisomycin as mentioned above etc.) in a 96-well in a final volume of 100 μl/well in a humified atmosphere of 37° C. Afterwards, 10 μl/well BrdU labeling solution is added to the cells being cultured in 100 μl/well (final concentration: 10 μM BrdU). Then, cells were re-incubated for additional 2 to 24 h at 37° C. Next, labeling solution is removed and 200 μl/well FixDenat is added to the cells and incubated for 30 min at 15 to 25° C. Then, 100 μl/well anti-BrdU-POD working solution is added and incubated for approximately 90 min, after FixDenat is removed. Next, antibody conjugate is removed and wells are washed with 200 μl-300 μl/well Washing solution (PBS, 1×). After the washing solution is removed, 100 μl/well Substrate solution is added and it is incubated again until color development is sufficient for photometric detection. Further, HCFs were treated with said compounds (Lycorine: 5 μM, Bufalin: 1 μM, Gitoxigenin: 1 μM and Anisomycin: 1 μM) for 24 h as indicated again and subjected to FACS analysis after Annexin-7AAD-staining (see FIG. 2C, 3C, 4C, 5C). After the treatment with said compounds, annexin-7AAD-staining starts with inducing apoptosis in HCFs by a desired method, known to the person skilled in the art, a negative control (w/o induction and staining) and a positive control (f. ex. 500 μM H2O2 or 3 μM Staurosporin) is also needed. Then, the medium with HCFs is transferred into a falcon, washed with PBS and trypsinized. Everything is centrifuged for 5 min at 300×g and then the supernatant is aspirated. The pellet is re-suspended in 200 μl Annexin Red/7AAD Working Solution (1:20, 5 μl Annexin Red/7AAD+195 μl 1× Assay Buffer) and transferred into an Easy Cap Eppendorf tube. After incubation of 15 min at 37° C., it is centrifuged at room temperature (RT) for 5 min at 300×g. […] Samples are now ready for acquisition on a flow cytometer (blue and red laser).

The next test deals with Collagen1a1. The test is described as follows: Collagen1a1 protein levels in HCFs, Western Blot. The conditions noted are these: Lycorine 5 μM, Bufalin, Gitoxigenin, Anisomycin 1 μM, 24 h, DMSO control. The class given is cell-based, human. The method, then:
Additionally, HCFs were treated with said compounds (Lycorine: 5 μM, Bufalin: 1 μM, Gitoxigenin: 1 μM and Anisomycin: 1 μM) for 24 h as indicated again, lysed and analyzed for extracellular matrix component Collagen1a1 protein levels in primary HCFs (normalized to GAPDH) by representative Western Blot, DMSO refers as a control (see FIG. 2D, 3D, 4D, 5D).
A general note: A western blot detects proteins with antibodies after separation by electrophoresis.

In test [2] the test system is C57BL/6 mice with angiotensin II-induced diastolic heart failure. The test is described as follows: Picrosirius-red collagen staining of heart sections, angiotensin II model (two weeks). The class given is in vivo. The conditions noted are these: i.p. every other day, Bufalin 0.5, Lycorine 4.5, Anisomycin 10, Gitoxigenin 0.01 mg/kg, day 14. The protocol: Diastolic heart failure (HF) was induced in C57BL/6 mice via implantation of angiotensin II filled minipumps. Male C57BL/6 mice 8-10 weeks old were used in the present invention being based on a C57BL/6N-background (Charles River, Germany).
For implantation of angiotension II filled minipumps, Angiotensin-II is applied by osmotic minipumps for two weeks (Alzet® [Modell 1001]). The recommended dose amounts for 1.5 or 3.0 mg/kg/per day. The minipumps are filled under sterile conditions with Angiotensin-II or with isotonic saline solution functioning as a control substance. Implantation takes place under intraperitoneal injection anaesthesia. […] Mice are then fixed on a pre-heated operating table and are provided with Bepanthen eye salve against drying out of the conjunctives. The operating field is located in the right caudal third of the back. It is shaved and desinfected with Braunol, afterwards it is coated with a 0.5% Lidocain-solution. After a period of one hour implantation can be started. The skin is cut through vertical to the back line, preferably the length is one centimeter. A pocket from the cutting line to cranial is subcutaneously formed. Herein, the minipumps are injected. Afterwards, the skin is then closed with a 5-0 Prolene string with interrupted sutures. Then, the closed wound is coated again with Braunol. For preventing hypothermia mice wake up in their cages, which are placed up to one-third on a terrarium-warming mat with regulated temperatures of 37°. Surgery amounts for 5 minutes/per animal.
Next, the natural compounds (Bufalin, Gitoxigenin, Lycorine, and Anisomycin) were injected intraperitoneally every other day during two consecutive weeks starting two days after the operation (see FIG. 6). DMSO was also injected into C57BL/6 mice with induced cardiac remodeling as a control. Cardiac function was assessed echocardiographically and fibrosis-development via collagen staining with picosirius-red in histological sections of the hearts (Example 4).
Further, fourteen days after the operation, histological sections of the hearts were stained for collagen using picrosirius-red (n=3-5 per group) after treatment with said compounds (Bufalin: 0.5 mg/kg, Lycorine 4.5 mg/kg, Anisomycin: 10 mg/kg and Gitoxigenin: 0.01 mg/kg).

A further test relates to miR-671-5p. The test can be described thus: miR-671-5p expression in HCFs, qRT-PCR. The conditions noted are these: Lycorine 5 μM, others 1 μM, 24 h, vs DMSO. It is filed as cell-based, human.
Another test relates to circular RNA CDR1as. The test can be described thus: CDR1as expression in HCFs, qRT-PCR. It is filed as cell-based, human. Particulars: Lycorine 5 μM, others 1 μM, 24 h, vs DMSO. The protocol: Expression levels of CDR1as are increased in primary HCFs upon treatment with Bufalin, Gitoxigenin, Lycorine, Anisomycin and Geldanamycin. HCFs were incubated for 24 h with Bufalin (1 μM), Gitoxigenin (1 μM,) Lycorine (5 μM), Anisomycin (1 μM) and Geldanamycin (1 μM) and upregulation of CDR1as (normalized to 18S rRNA) by the respective compound was validated via qRT-PCR (see FIG. 22).
On the technique in general: Quantitative PCR measures a nucleic acid by following its amplification.

With `C[C@]12CC[C@H](O)C[C@H]1CC[C@@H]1[C@@H]2CC[C@]2(C)[C@@H](c3ccc(=O)oc3)CC[C@]12O` [Bufalin], in test [1], the “proliferation of the cardiomyocyte cell line HL-1” value is listed as “no impact”. Further, in the test on Collagen1a1, the “expression levels of Collagen1a1 (normalized to GAPDH)” value is given as “decreases expression levels”. Besides, the “collagen deposition in heart sections (picrosirius-stained areas)” value in test [2] is given as “prominent reduction of collagen deposition”. Moreover, the “expression levels of miR-671-5p (normalized to RNU48)” value with miR-671-5p is listed as “decreased”. Also, the “expression levels of CDR1as (normalized to 18S rRNA)” value with circular RNA CDR1as is “increase”.
For `C[C@]12CC[C@H](O)C[C@H]1CC[C@@H]1[C@@H]2CC[C@]2(C)[C@@H](C3=CC(=O)OC3)[C@@H](O)C[C@]12O` [Gitoxigenin] the same measures were “no impact”, “decreases expression levels”, “prominent reduction of collagen deposition”, “decreased” and “increase”.
For `O[C@H]1[C@H]2c3cc4c(cc3CN3CCC(=C[C@@H]1O)[C@H]23)OCO4` [Lycorine] the same measures were “no impact”, “decreases expression levels”, “prominent reduction of collagen deposition”, “decreased” and “increase”.
For `COc1ccc(C[C@H]2NC[C@H](O)[C@H]2OC(C)=O)cc1` [Anisomycin] the same measures were “no impact”, “decreases expression levels”, “prominent reduction of collagen deposition”, “decreased” and “increase”.
